Laboratory results as given in ChEMBL document CHEMBL3600313, “Novel (pyrazolyl)benzenesulfonamides with a nitric oxide-releasing moiety as selective cyclooxygenase-2 inhibitors” (Bioorg Med Chem Lett, 2015).

What was measured:
[1] = Nitric oxide release in phosphate-buffered-saline containing L-cysteine using 2,3-diaminonaphthlene at 50 uM after 90 mins by fluorescence assay
[2] = molecular target: T1, Prostaglandin G/H synthase 2 (Homo sapiens, UniProt P35354); experiment: Inhibition of recombinant human COX-2 assessed as reduction of prostaglandin-G2 to prostaglandin-H2 and oxidation of 10-acetyl-3,7-dihydroxyphenoxazine to resorufin after 5 mins by fluorescence based assay
T1 sequence (P35354 whole entry): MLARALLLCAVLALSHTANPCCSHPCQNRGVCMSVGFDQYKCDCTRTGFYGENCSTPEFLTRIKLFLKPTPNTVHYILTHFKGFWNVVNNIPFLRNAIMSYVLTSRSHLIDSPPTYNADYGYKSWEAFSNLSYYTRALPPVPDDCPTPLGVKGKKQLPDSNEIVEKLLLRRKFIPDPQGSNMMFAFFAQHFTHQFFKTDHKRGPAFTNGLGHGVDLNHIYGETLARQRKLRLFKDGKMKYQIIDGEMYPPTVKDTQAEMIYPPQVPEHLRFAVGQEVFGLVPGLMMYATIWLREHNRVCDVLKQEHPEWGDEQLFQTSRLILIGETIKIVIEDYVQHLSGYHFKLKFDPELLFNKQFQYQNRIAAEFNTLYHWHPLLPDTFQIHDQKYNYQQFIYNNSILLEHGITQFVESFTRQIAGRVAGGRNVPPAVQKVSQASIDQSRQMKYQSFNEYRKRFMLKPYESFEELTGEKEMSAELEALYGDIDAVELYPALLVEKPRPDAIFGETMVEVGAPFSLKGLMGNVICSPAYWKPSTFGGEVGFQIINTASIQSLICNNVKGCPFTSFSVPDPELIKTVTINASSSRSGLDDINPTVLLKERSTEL

[3] = molecular target: T2, Prostaglandin G/H synthase 1 (Ovis aries, UniProt P05979); experiment: Inhibition of ovine COX-1 assessed as reduction of prostaglandin-G2 to prostaglandin-H2 and oxidation of 10-acetyl-3,7-dihydroxyphenoxazine to resorufin after 5 mins by fluorescence based assay
T2 sequence (P05979 whole entry): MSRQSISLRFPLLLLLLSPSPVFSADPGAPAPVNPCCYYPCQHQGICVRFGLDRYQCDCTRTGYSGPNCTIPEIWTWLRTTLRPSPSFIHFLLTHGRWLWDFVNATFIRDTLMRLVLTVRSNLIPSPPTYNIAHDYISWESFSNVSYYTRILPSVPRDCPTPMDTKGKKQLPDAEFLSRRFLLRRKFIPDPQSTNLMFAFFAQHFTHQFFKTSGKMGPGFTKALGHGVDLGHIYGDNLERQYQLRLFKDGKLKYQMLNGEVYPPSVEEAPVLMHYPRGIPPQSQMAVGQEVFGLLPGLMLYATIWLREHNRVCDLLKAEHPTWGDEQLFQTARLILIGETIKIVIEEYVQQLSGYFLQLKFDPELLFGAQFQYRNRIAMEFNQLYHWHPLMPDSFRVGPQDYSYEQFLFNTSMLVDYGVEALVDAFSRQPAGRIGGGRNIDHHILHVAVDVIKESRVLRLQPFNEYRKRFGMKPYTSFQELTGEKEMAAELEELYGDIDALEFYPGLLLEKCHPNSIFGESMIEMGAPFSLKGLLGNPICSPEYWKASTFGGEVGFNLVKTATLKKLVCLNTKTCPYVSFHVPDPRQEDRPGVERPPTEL

[4] = Nitric oxide release in phosphate-buffered-saline containing K3[Fe(CN)6] using 2,3-diaminonaphthlene at 50 uM after 90 mins by fluorescence assay
[5] = Selectivity index, ratio of IC50 for ovine COX-1 to IC50 for recombinant human COX-2
[6] = tested on: Plasma; experiment: Nitric oxide release in human plasma using 2,3-diaminonaphthlene at 50 uM after 90 mins by fluorescence assay; format: ADME, cell-free; conditions: 1.5 h
[7] = Nitric oxide release in phosphate-buffered-saline containing human plasma at 50 uM after 90 mins by fluorescence assay in absence of HgCl2
[8] = Nitric oxide release in phosphate-buffered-saline containing human plasma at 50 uM after 90 mins by fluorescence assay in presence of HgCl2
[9] = Chemical stability of the compound in aqueous solution after 9 days by HPLC analysis; format: physicochemical; conditions: buffer, 216 h
[10] = Nitric oxide release in phosphate-buffered-saline containing K3[Fe(CN)6] using 2,3-diaminonaphthlene at 50 uM after 90 mins by Griess assay
[11] = Nitric oxide release in phosphate-buffered-saline using 2,3-diaminonaphthlene at 50 uM after 90 mins by fluorescence assay
[12] = Nitric oxide release in phosphate-buffered-saline using 2,3-diaminonaphthlene at 50 uM after 90 mins by Griess assay
[13] = tested on: Serum; experiment: Nitric oxide release in rat serum using 2,3-diaminonaphthlene at 50 uM after 90 mins by Griess assay; format: ADME, cell-free; conditions: 1.5 h

| IC50 [2] [nM] | IC50 [3] [µM] | Ratio IC50 [5] | Activity [6] [%] | Stability [9] | Activity [13] [%] | SMILES | Activity [1] [%] | Activity [4] [%] | Activity [7] [%] | Activity [8] [%] | Activity [10] [%] | Activity [11] [%] | Activity [12] [%] |
| --- | --- | --- | --- | --- | --- | --- | --- | --- | --- | --- | --- | --- | --- |
| 45000 | 65 | 1.4 | 1.4 |  |  | CC(=O)Oc1ccccc1C(=O)OCCCCO[N+](=O)[O-] | 0.8 | 0.2 |  |  |  |  |  |
| 970 | > 100 | > 103 |  |  |  | Cc1ccc(-c2cc(CCl)nn2-c2ccc(S(N)(=O)=O)cc2)cc1 |  |  |  |  |  |  |  |
| 280 | 61 | 218 | 0.5 |  |  | Cc1ccc(-c2c(Cl)c(CO[N+](=O)[O-])nn2-c2ccc(S(N)(=O)=O)cc2)cc1 | 0.8 |  | 0 | 3.5 |  |  |  |
| 890 | > 100 | > 112 | 0.3 | Stable |  | Cc1ccc(-c2cc(CO[N+](=O)[O-])nn2-c2ccc(S(N)(=O)=O)cc2)cc1 | 1.2 | 0.6 | 0 | 3.5 |  |  |  |
|  |  |  | 0.3 |  | 3.2 | O=S(=O)(NO)c1ccccc1 | 0.3 | 48.3 |  |  | 58.4 | 33.5 | 59.7 |
| 1270 | > 100 | > 78.7 |  | Stable |  | Cc1ccc(-c2cc(CO)nn2-c2ccc(S(N)(=O)=O)cc2)cc1 |  |  |  |  |  |  |  |
| 220 | > 100 | > 454 |  |  |  | Cc1ccc(-c2c(Cl)c(CCl)nn2-c2ccc(S(N)(=O)=O)cc2)cc1 |  |  |  |  |  |  |  |
